From publication PMC5218480 (PLoS ONE, 2017)

Test system: MV-4-11 cells
Assay: Gene expression microarray analysis (Affymetrix PrimeView) and GSEA
Type: cell-based, human
Parameters: RFU PODN (11730768_x_at) / Fold change /veh PODN (11730768_x_at) / RFU LINC00158 (11744669_a_at) / Fold change /veh LINC00158 (11744669_a_at) / RFU DUSP10 (11751237_a_at) / Fold change /veh DUSP10 (11751237_a_at) / RFU ID3 (11757404_x_at) / Fold change /veh ID3 (11757404_x_at) / RFU PLEKHG5 (11737974_s_at) / Fold change /veh PLEKHG5 (11737974_s_at) / RFU LRRC4B (11730491_at) / Fold change /veh LRRC4B (11730491_at) / RFU GIMAP4 (11747438_a_at) / Fold change /veh GIMAP4 (11747438_a_at) / RFU KRT8 (11758183_x_at) / Fold change /veh KRT8 (11758183_x_at) / RFU CNN1 (11734310_a_at) / Fold change /veh CNN1 (11734310_a_at) / RFU VPS37D (11726825_at) / Fold change /veh VPS37D (11726825_at) / RFU C10orf10 (11716522_x_at) / Fold change /veh C10orf10 (11716522_x_at) / RFU KIR2DL2 /// KIR2DL4 /// KIR2DL5A /// KIR2DL5B /// KIR2DS1 /// KIR2DS2 /// KIR2DS3 /// KIR2DS4 /// KIR3DL3 /// KIR3DL3 /// KIR3DS1 (11738374_at) / Fold change /veh KIR2DL2 /// KIR2DL4 /// KIR2DL5A /// KIR2DL5B /// KIR2DS1 /// KIR2DS2 /// KIR2DS3 /// KIR2DS4 /// KIR3DL3 /// KIR3DL3 /// KIR3DS1 (11738374_at) / RFU C1QL1 (11718748_at) / Fold change /veh C1QL1 (11718748_at) / RFU TMPRSS4 (11747572_a_at) / Fold change /veh TMPRSS4 (11747572_a_at) / RFU HAMP (11756126_x_at) / Fold change /veh HAMP (11756126_x_at) / RFU RNFT2 (11725882_a_at) / Fold change /veh RNFT2 (11725882_a_at) / RFU NR4A2 (11747474_a_at) / Fold change /veh NR4A2 (11747474_a_at) / RFU ABCC12 (11746883_a_at) / Fold change /veh ABCC12 (11746883_a_at) / RFU TMEM136 (11760407_x_at) / Fold change /veh TMEM136 (11760407_x_at) / RFU CLDN22 /// WWC2 (11732394_at) / Fold change /veh CLDN22 /// WWC2 (11732394_at) / RFU HLA-DPB1 (11760878_x_at) / Fold change /veh HLA-DPB1 (11760878_x_at) / RFU SPINT1 (11716480_a_at) / Fold change /veh SPINT1 (11716480_a_at) / RFU GAP43 (11754022_s_at) / Fold change /veh GAP43 (11754022_s_at) / RFU A4GNT (11735810_at) / Fold change /veh A4GNT (11735810_at) / RFU PRB3 (11715151_x_at) / Fold change /veh PRB3 (11715151_x_at) / RFU TUBB4B (11761932_at) / Fold change /veh TUBB4B (11761932_at) / RFU CAPN14 (11732068_a_at) / Fold change /veh CAPN14 (11732068_a_at) / RFU TMCC2 (11721928_a_at) / Fold change /veh TMCC2 (11721928_a_at) / RFU IRGQ (11745062_a_at) / Fold change /veh IRGQ (11745062_a_at) / RFU FAM174B (11720279_a_at) / Fold change /veh FAM174B (11720279_a_at) / RFU TMPRSS4 (11748680_a_at) / Fold change /veh TMPRSS4 (11748680_a_at) / RFU FAM212B (11763350_a_at) / Fold change /veh FAM212B (11763350_a_at) / RFU PLEKHG5 (11743358_a_at) / Fold change /veh PLEKHG5 (11743358_a_at) / RFU ZSCAN30 (11745921_a_at) / Fold change /veh ZSCAN30 (11745921_a_at) / RFU CMKLR1 (11741424_a_at) / Fold change /veh CMKLR1 (11741424_a_at) / RFU LOC101060620 /// MAPK8IP1 (11723275_at) / Fold change /veh LOC101060620 /// MAPK8IP1 (11723275_at) / RFU SPTSSB (11747773_x_at) / Fold change /veh SPTSSB (11747773_x_at) / RFU PRSS12 (11739890_at) / Fold change /veh PRSS12 (11739890_at) / RFU BIN1 (11741810_x_at) / Fold change /veh BIN1 (11741810_x_at) / RFU WNT11 (11732464_a_at) / Fold change /veh WNT11 (11732464_a_at) / RFU C10orf10 (11716521_a_at) / Fold change /veh C10orf10 (11716521_a_at) / RFU C5orf56 (11738089_at) / Fold change /veh C5orf56 (11738089_at) / RFU CYB561 (11721691_x_at) / Fold change /veh CYB561 (11721691_x_at) / RFU ANKRD19P (11752326_a_at) / Fold change /veh ANKRD19P (11752326_a_at) / RFU OR2T12 /// OR2T33 /// OR2T8 (11738714_s_at) / Fold change /veh OR2T12 /// OR2T33 /// OR2T8 (11738714_s_at) / RFU VCAN (11748164_a_at) / Fold change /veh VCAN (11748164_a_at) / RFU JSRP1 (11732532_at) / Fold change /veh JSRP1 (11732532_at) / RFU KRTAP10-11 (11738290_x_at) / Fold change /veh KRTAP10-11 (11738290_x_at) / RFU MYO3A (11730013_a_at) / Fold change /veh MYO3A (11730013_a_at) / RFU EBF3 (11725865_a_at) / Fold change /veh EBF3 (11725865_a_at) / RFU CAMK2N1 (11719241_x_at) / Fold change /veh CAMK2N1 (11719241_x_at) / RFU C5orf56 (11738088_a_at) / Fold change /veh C5orf56 (11738088_a_at) / RFU OLFML3 (11715873_a_at) / Fold change /veh OLFML3 (11715873_a_at) / RFU LOC100653217 /// NTM (11731650_a_at) / Fold change /veh LOC100653217 /// NTM (11731650_a_at) / RFU MAPK11 (11762145_a_at) / Fold change /veh MAPK11 (11762145_a_at) / RFU FIZ1 (11724087_x_at) / Fold change /veh FIZ1 (11724087_x_at) / RFU OASL (11726364_x_at) / Fold change /veh OASL (11726364_x_at) / RFU SOX15 (11748057_x_at) / Fold change /veh SOX15 (11748057_x_at) / RFU CD79A (11719716_a_at) / Fold change /veh CD79A (11719716_a_at) / RFU HIST1H1D (11736915_at) / Fold change /veh HIST1H1D (11736915_at) / RFU CASKIN2 (11723855_a_at) / Fold change /veh CASKIN2 (11723855_a_at) / RFU LOC730098 (11760151_x_at) / Fold change /veh LOC730098 (11760151_x_at) / RFU OR4N2 (11742367_at) / Fold change /veh OR4N2 (11742367_at) / RFU PRRT2 (11749266_a_at) / Fold change /veh PRRT2 (11749266_a_at) / RFU SNX32 (11753110_a_at) / Fold change /veh SNX32 (11753110_a_at) / RFU CDHR5 (11726645_a_at) / Fold change /veh CDHR5 (11726645_a_at) / RFU RCAN1 (11760418_a_at) / Fold change /veh RCAN1 (11760418_a_at) / RFU FAM167A (11723789_a_at) / Fold change /veh FAM167A (11723789_a_at) / RFU FAM26E (11764081_at) / Fold change /veh FAM26E (11764081_at) / RFU ISYNA1 (11749810_s_at) / Fold change /veh ISYNA1 (11749810_s_at) / RFU ACY1 (11761880_at) / Fold change /veh ACY1 (11761880_at) / RFU 11764098_at / Fold change /veh 11764098_at / RFU SAMD14 (11745864_x_at) / Fold change /veh SAMD14 (11745864_x_at) / RFU NPB (11741838_a_at) / Fold change /veh NPB (11741838_a_at) / RFU TMPRSS6 (11731388_a_at) / Fold change /veh TMPRSS6 (11731388_a_at) / RFU KRTAP10-2 (11738614_at) / Fold change /veh KRTAP10-2 (11738614_at) / RFU ARHGAP8 /// PRR5-ARHGAP8 (11727945_x_at) / Fold change /veh ARHGAP8 /// PRR5-ARHGAP8 (11727945_x_at) / RFU KRTAP5-7 /// NADSYN1 (11734609_at) / Fold change /veh KRTAP5-7 /// NADSYN1 (11734609_at) / RFU RASL12 (11751679_a_at) / Fold change /veh RASL12 (11751679_a_at) / RFU CDKN2B (11736163_a_at) / Fold change /veh CDKN2B (11736163_a_at) / RFU PRF1 (11729649_at) / Fold change /veh PRF1 (11729649_at) / RFU, ZNF638 /// ZNF638-IT1 / Fold change vs veh, ZNF638 /// ZNF638-IT1 / RFU, PANK3 / Fold change vs veh, PANK3 / RFU, SH3YL1 / Fold change vs veh, SH3YL1 / RFU, ZEB2 / Fold change vs veh, ZEB2 / RFU, NRIP1 / Fold change vs veh, NRIP1 / RFU, PTTG1IP / Fold change vs veh, PTTG1IP / RFU, CAPN2 / Fold change vs veh, CAPN2 / RFU, MED14 / Fold change vs veh, MED14 / RFU, SNORA58 / Fold change vs veh, SNORA58 / RFU, C1orf63 / Fold change vs veh, C1orf63 / RFU, LRRFIP1 / Fold change vs veh, LRRFIP1 / RFU, NDUFAF7 / Fold change vs veh, NDUFAF7 / RFU, SLC12A2 / Fold change vs veh, SLC12A2 / RFU, IBTK / Fold change vs veh, IBTK / RFU, ESF1 / Fold change vs veh, ESF1 / Fold change vs veh, TMEM50B / RFU, TAOK1 / Fold change vs veh, TAOK1 / RFU, ACBD3 / Fold change vs veh, ACBD3 / RFU, TMA16 / Fold change vs veh, TMA16 / RFU, RWDD3 / Fold change vs veh, RWDD3 / RFU, BCAT1 / Fold change vs veh, BCAT1 / RFU, EDEM3 / Fold change vs veh, EDEM3 / RFU, TMEM33 / Fold change vs veh, TMEM33 / RFU, WDR75 / Fold change vs veh, WDR75 / RFU, AHCTF1 / Fold change vs veh, AHCTF1 / RFU, TFRC / Fold change vs veh, TFRC / RFU, ZDHHC17 / Fold change vs veh, ZDHHC17 / RFU, NOM1 / Fold change vs veh, NOM1 / RFU, ARL8B / Fold change vs veh, ARL8B / RFU, ZBTB11 / Fold change vs veh, ZBTB11 / RFU, TAMM41 / Fold change vs veh, TAMM41 / RFU, KIAA1704 /// LOC100996395 / Fold change vs veh, KIAA1704 /// LOC100996395 / RFU, ING1 / Fold change vs veh, ING1 / RFU, TRMT61B / Fold change vs veh, TRMT61B / RFU, FUBP3 / Fold change vs veh, FUBP3 / RFU, TP53 / Fold change vs veh, TP53 / RFU, TNKS2 / Fold change vs veh, TNKS2 / RFU, ZFP14 / Fold change vs veh, ZFP14 / RFU, ACTR2 / Fold change vs veh, ACTR2 / RFU, PPP3R1 / Fold change vs veh, PPP3R1 / RFU, PIK3R1 / Fold change vs veh, PIK3R1 / RFU, HNRNPA1 / Fold change vs veh, HNRNPA1 / RFU, RNF170 / Fold change vs veh, RNF170 / RFU, ZNF28 / Fold change vs veh, ZNF28 / RFU, RNGTT / Fold change vs veh, RNGTT / RFU, OGT / Fold change vs veh, OGT / RFU, BRD1 / Fold change vs veh, BRD1 / RFU, MARS / Fold change vs veh, MARS / RFU, ZNF655 / Fold change vs veh, ZNF655 / RFU, FAHD1 / Fold change vs veh, FAHD1 / RFU, BDP1 / Fold change vs veh, BDP1 / RFU, LRRCC1 / Fold change vs veh, LRRCC1 / RFU, ARID1A / Fold change vs veh, ARID1A / RFU, ZNF146 / Fold change vs veh, ZNF146 / RFU, ZNF330 / Fold change vs veh, ZNF330 / RFU, GPN3 / Fold change vs veh, GPN3 / RFU, C9orf123 / Fold change vs veh, C9orf123 / RFU, N4BP2L2 / Fold change vs veh, N4BP2L2 / RFU, ARFIP1 / Fold change vs veh, ARFIP1 / RFU, FAM179B / Fold change vs veh, FAM179B / RFU, BCL10 / Fold change vs veh, BCL10 / RFU, UHRF1BP1L / Fold change vs veh, UHRF1BP1L / RFU, BET1 / Fold change vs veh, BET1 / RFU, CNOT2 / Fold change vs veh, CNOT2 / RFU, ZNF268 / Fold change vs veh, ZNF268 / Fold change vs veh, ZNF507 / RFU, DGCR2 / Fold change vs veh, DGCR2 / RFU, WDSUB1 / Fold change vs veh, WDSUB1 / Fold change vs veh, HSP90B1 /// MIR3652 / RFU, ADSS / Fold change vs veh, ADSS / RFU, GK / Fold change vs veh, GK / RFU, ZNF148 / Fold change vs veh, ZNF148 / RFU, TAF9 / Fold change vs veh, TAF9 / RFU, SLC1A5 / Fold change vs veh, SLC1A5 / RFU, SLMO2 / Fold change vs veh, SLMO2 / RFU, ABCC4 / Fold change vs veh, ABCC4 / RFU, LOC101060439 /// RAP1B / Fold change vs veh, LOC101060439 /// RAP1B / RFU, RFX7 / Fold change vs veh, RFX7 / RFU, GTPBP10 / Fold change vs veh, GTPBP10 / RFU, CNEP1R1 / Fold change vs veh, CNEP1R1 / RFU, BIVM-ERCC5 /// ERCC5 / Fold change vs veh, BIVM-ERCC5 /// ERCC5 / RFU, ILF3 / Fold change vs veh, ILF3 / RFU 11762660_at / Fold change /veh 11762660_at / RFU VCAN (11757783_s_at) / Fold change /veh VCAN (11757783_s_at) / RFU DDX43 (11728927_at) / Fold change /veh DDX43 (11728927_at) / RFU KRT8 (11758188_x_at) / Fold change /veh KRT8 (11758188_x_at) / RFU NKD1 (11759106_at) / Fold change /veh NKD1 (11759106_at) / RFU SRD5A1 (11742802_a_at) / Fold change /veh SRD5A1 (11742802_a_at) / RFU TPSAB1 /// TPSB2 (11721975_s_at) / Fold change /veh TPSAB1 /// TPSB2 (11721975_s_at) / RFU GSTM3 (11746129_a_at) / Fold change /veh GSTM3 (11746129_a_at) / RFU IL23R (11737362_x_at) / Fold change /veh IL23R (11737362_x_at) / RFU TMEM51 (11727254_a_at) / Fold change /veh TMEM51 (11727254_a_at) / RFU PIWIL2 (11732686_x_at) / Fold change /veh PIWIL2 (11732686_x_at) / RFU ORM1 (11744905_x_at) / Fold change /veh ORM1 (11744905_x_at) / RFU CCDC152 (11743942_at) / Fold change /veh CCDC152 (11743942_at) / RFU ECM1 (11717891_a_at) / Fold change /veh ECM1 (11717891_a_at) / RFU IL23R (11748794_a_at) / Fold change /veh IL23R (11748794_a_at) / RFU TNFAIP8L3 (11732012_x_at) / Fold change /veh TNFAIP8L3 (11732012_x_at) / RFU MBOAT4 (11741988_at) / Fold change /veh MBOAT4 (11741988_at) / RFU 11764193_at / Fold change /veh 11764193_at / RFU TMEM53 (11763286_at) / Fold change /veh TMEM53 (11763286_at) / RFU MAGEB2 (11727129_at) / Fold change /veh MAGEB2 (11727129_at) / RFU TMEM200A (11744735_a_at) / Fold change /veh TMEM200A (11744735_a_at) / RFU CCDC152 (11751479_a_at) / Fold change /veh CCDC152 (11751479_a_at) / RFU FAM211A (11726209_a_at) / Fold change /veh FAM211A (11726209_a_at) / RFU RGS16 (11746705_a_at) / Fold change /veh RGS16 (11746705_a_at) / RFU VCAN (11755009_s_at) / Fold change /veh VCAN (11755009_s_at) / RFU RHOB (11743442_s_at) / Fold change /veh RHOB (11743442_s_at) / RFU RGS16 (11720943_a_at) / Fold change /veh RGS16 (11720943_a_at) / RFU RGS16 (11720944_at) / Fold change /veh RGS16 (11720944_at) / RFU, VPS4B / Fold change vs veh, VPS4B / RFU, CREB1 / Fold change vs veh, CREB1 / RFU, DNAJC13 / Fold change vs veh, DNAJC13 / RFU, GNAQ / Fold change vs veh, GNAQ / RFU, CDK5R1 / Fold change vs veh, CDK5R1 / RFU, ZRANB3 / Fold change vs veh, ZRANB3 / RFU, CUL4A / Fold change vs veh, CUL4A / RFU, CCNY / Fold change vs veh, CCNY / RFU, UFL1 / Fold change vs veh, UFL1 / RFU, COG3 / Fold change vs veh, COG3 / RFU, DIAPH2 / Fold change vs veh, DIAPH2 / RFU, SKA2 / Fold change vs veh, SKA2 / RFU, AFF3 / Fold change vs veh, AFF3 / RFU, LMF1 / Fold change vs veh, LMF1 / RFU, IPO11 / Fold change vs veh, IPO11 / RFU, DFFB / Fold change vs veh, DFFB / RFU, FOXP1 / Fold change vs veh, FOXP1 / RFU, CARD8 / Fold change vs veh, CARD8 / RFU, STRN3 / Fold change vs veh, STRN3 / RFU, ADK / Fold change vs veh, ADK / RFU, RASSF2 / Fold change vs veh, RASSF2 / RFU, WIPF1 / Fold change vs veh, WIPF1 / RFU, LARP1B / Fold change vs veh, LARP1B / RFU, RASA1 / Fold change vs veh, RASA1 / RFU, RB1 / Fold change vs veh, RB1 / RFU, PPFIA1 / Fold change vs veh, PPFIA1 / RFU, MAT2A / Fold change vs veh, MAT2A / RFU, CCT5 / Fold change vs veh, CCT5 / RFU, WDR92 / Fold change vs veh, WDR92 / RFU, CUX1 / Fold change vs veh, CUX1 / RFU, TTC7A / Fold change vs veh, TTC7A / RFU, TMEM135 / Fold change vs veh, TMEM135 / RFU, DEPTOR / Fold change vs veh, DEPTOR / RFU, CPM / Fold change vs veh, CPM / RFU, DNAJB6 / Fold change vs veh, DNAJB6 / RFU, CACNA2D3 / Fold change vs veh, CACNA2D3 / RFU, DTX4 / Fold change vs veh, DTX4 / RFU, TFCP2 / Fold change vs veh, TFCP2 / RFU, GMCL1 /// GMCL1P1 / Fold change vs veh, GMCL1 /// GMCL1P1 / RFU, AEBP2 / Fold change vs veh, AEBP2 / RFU, SNHG1 /// SNORD22 /// SNORD25 /// SNORD26 /// SNORD27 /// SNORD28 /// SNORD29 /// SNORD31 / Fold change vs veh, SNHG1 /// SNORD22 /// SNORD25 /// SNORD26 /// SNORD27 /// SNORD28 /// SNORD29 /// SNORD31 / Fold change (Aza/veh), C12orf56 (ProbeSet 11735607_a_at) / Fold change (ACY-1035/veh), C12orf56 (ProbeSet 11735607_a_at) / Fold change (Aza/veh), FGFR1OP (ProbeSet 11751329_s_at) / Fold change (ACY-1035/veh), FGFR1OP (ProbeSet 11751329_s_at) / Fold change (Aza/veh), VPS36 (ProbeSet 11739960_a_at) / Fold change (ACY-1035/veh), VPS36 (ProbeSet 11739960_a_at) / RFU SYPL1 (11715823_x_at) / Fold change /veh SYPL1 (11715823_x_at) / RFU IGFBP7 (11715501_s_at) / Fold change /veh IGFBP7 (11715501_s_at) / RFU REEP3 (11722064_at) / Fold change /veh REEP3 (11722064_at) / RFU IGLL1 (11728026_x_at) / Fold change /veh IGLL1 (11728026_x_at): dose or concentration left out as unconfirmed
Details: MV-4-11 cells, 48 hours

In the case of Nc1ccc(-c2cccs2)cc1NC(=O)c1ccc2c(c1)cc(C1CC1)n2CCN1CCOCC1 [ACY-1035], the “RFU RHOB (11743442_s_at)” value is reported as 104.18 RFU.
